Test results: patent publication US20100037353A1, “METHOD FOR IMPROVING ACTIVITY OF REACTIVE OXYGEN SPECIES SCAVENGING ENZYMES” (B Food Science Co., Ltd., priority 2007, published 2010)

Columns and labels:
[1] = system: Cu/Zn-type SODs and SOD Cu Chaperone genes; assay: Transcriptomics with Arabidopsis thaliana DNA chip on root total RNA; type: in vivo; settings: root of Arabidopsis thaliana grown on 2% sugar-containing MS medium with sugar alcohol at final concentration 0-2%
Excerpt: (§1) The DNA microarray is a partial sequence of DNA arranged and fixed in a high-density manner on a slide glass which is divided into from several tens of thousands to hundreds of thousands. By using this, an expressed gene can be detected. Arabidopsis thaliana and a rat were used as model organisms. These organisms each was cultivated or bred with an arbitrary test substance and then an mRNA extracted from the cells of the cultivated or bred organism was hybridized with a target which is changed into cDNA with a reverse transcriptase. By carrying out this procedure, gene information expressed in the model organism was detected comprehensively, this procedure is so-called a transcriptomics. Furthermore, separation and purification of the protein of the ROS-scavenging enzyme in the model organisms' cells and determination of the enzyme activity were carried out, whereby the results obtained from the transcriptomics were directly verified. RNA was extracted from a root of the Arabidopsis thaliana grown by a culture medium which contains a MS culture medium composition having sucrose at a concentration of 2% and a series of test substances at a final concentration of 0-2% each. This extracted specimen was supplied to the DNA microarray. In addition, RNA was extracted from the hepatocytes of SD rat grown with feed which contains a control feed having cornstarch as the main ingredient and a sugar alcohol as a series of test substances at a final concentration of 0-10%. This extracted specimen was supplied to the DNA microarray in the same way as described above. The protein of the ROS-scavenging enzyme in the model organism cells was separated and purified using AKT Aexplorer (FPLC). SOD activity measurements were carried out according to a standard protocol using SOD Assay Kit-WST. Total RNA was extracted from the root of Arabidopsis thaliana grown by a culture medium containing a 2% sugar-containing MS culture medium composition and a series of sugar alcohols at a final concentration of 0-2% each. Transcriptomics was conducted using a Arabidopsis thaliana DNA chip (the number of loading genes: 30,480 genes, the number of probe/gene: 6, probe length: 60mer) of GeneFrontier Corporation.

[2] = system: Cu/Zn-type SODs and SOD Cu Chaperone genes; assay: Transcriptomics with rat DNA chip on hepatocyte total RNA of fed rats; type: in vivo; settings: hepatocytes of SD rats fed thirty days with feed containing sugar alcohol at final concentration 0-10%
Excerpt: as §1, with “Kit-WST. Rats were fed for thirty days with a control diet containing 552.5 parts by weight of cornstarch, 250 parts by weight of casein, 35 parts by weight of mineral, 10 parts by weight of vitamin mixture, 2.5 parts by weight of choline bitartrate, 50 parts by weight of corn oil and 100 parts by weight of powdered cellulose, or feedstuffs containing the same composition as described in the control diet except that a portion of the powdered cellulose was replaced with the series of sugar alcohols so that the feedstuffs contain sugar alcohols at the final concentration of 0-10% each. The livers were taken out of the killed SD system rats and the total” for “Kit-WST. Total”, “the hepatocytes,” for “the root of Arabidopsis thaliana grown by a culture medium containing a 2% sugar-containing MS culture medium composition”, “and transcriptomics” for “and a series of sugar alcohols at a final concentration of 0-2% each. Transcriptomics”, “a rat” for “a Arabidopsis thaliana”, “genes: 21,205,” for “genes: 30,480 genes,”, “of probes per gene: 9,” for “of probe/gene: 6,”

SOD [3] = assay: SOD activity of Arabidopsis thaliana root extract (SOD Assay Kit-WST); type: in vivo; settings: root extract of Arabidopsis thaliana grown with sugar alcohol 0-2% (Example 1)
Excerpt: RNA was extracted from a root of the Arabidopsis thaliana grown by a culture medium which contains a MS culture medium composition having sucrose at a concentration of 2% and a series of test substances at a final concentration of 0-2% each. This extracted specimen was supplied to the DNA microarray. In addition, RNA was extracted from the hepatocytes of SD rat grown with feed which contains a control feed having cornstarch as the main ingredient and a sugar alcohol as a series of test substances at a final concentration of 0-10%. This extracted specimen was supplied to the DNA microarray in the same way as described above. The protein of the ROS-scavenging enzyme in the model organism cells was separated and purified using AKT Aexplorer (FPLC). SOD activity measurements were carried out according to a standard protocol using SOD Assay Kit-WST. The roots of the Arabidopsis thaliana grown in Example 1 were crushed and water-extracted and then freeze-dried. Then each of the dried extract was dissolved in the buffer solution of 0.1M calcium phosphate to obtain a specimen. The SOD activity was determined according to a standard protocol using SOD Assay Kit-WST (Dojin Kagaku Kenkyu-Sho). […] In particular, the SOD activity of the erythritol-added group increased by 2-5 times.

SOD [4] = assay: SOD activity of rat liver extract (SOD Assay Kit-WST); type: in vivo, SD rat; settings: liver extract of rats fed thirty days with sugar alcohol 0-10% in feed (Example 2)
Excerpt: RNA was extracted from a root of the Arabidopsis thaliana grown by a culture medium which contains a MS culture medium composition having sucrose at a concentration of 2% and a series of test substances at a final concentration of 0-2% each. This extracted specimen was supplied to the DNA microarray. In addition, RNA was extracted from the hepatocytes of SD rat grown with feed which contains a control feed having cornstarch as the main ingredient and a sugar alcohol as a series of test substances at a final concentration of 0-10%. This extracted specimen was supplied to the DNA microarray in the same way as described above. The protein of the ROS-scavenging enzyme in the model organism cells was separated and purified using AKT Aexplorer (FPLC). SOD activity measurements were carried out according to a standard protocol using SOD Assay Kit-WST. The livers of the rats fed in Example 2 each was crushed and then extracted with normal saline solution, and then freeze-dried. SOD activity was determined according to the same way as described in Example 3. […] In particular, the SOD activity of the erythritol-added group increased by 2 times.

| Structure (SMILES) | expression of Cu/Zn-type SODs and SOD Cu Chaperone genes [1] | expression of Cu/Zn-type SODs and SOD Cu Chaperone genes [2] | SOD activity compared to the control group (SOD [3]) | SOD activity compared to the control group (SOD [4]) | increase of SOD activity compared to the control group (SOD [3]) | increase of SOD activity compared to the control group (SOD [4]) [times] |
| --- | --- | --- | --- | --- | --- | --- |
| OC[C@@H](O)[C@H](O)[C@@H](O)CO [xylitol] | up-regulated | up-regulated | promotion of the SOD activity was seen | promotion of the SOD activity was seen | – | – |
| OC[C@@H](O)[C@@H](O)[C@H](O)[C@@H](O)CO [sorbitol] | up-regulated | up-regulated | promotion of the SOD activity was seen | promotion of the SOD activity was seen | – | – |
| OC[C@@H](O)[C@@H](O)CO [erythritol] | up-regulated | up-regulated | promotion of the SOD activity was seen | promotion of the SOD activity was seen | 2-5 times | 2 |
| OC[C@@H](O)[C@@H](O)[C@H](O)[C@H](O)CO [mannitol] | up-regulated | up-regulated | promotion of the SOD activity was seen | promotion of the SOD activity was seen | – | – |
